Measurements as given in ChEMBL document CHEMBL5523727, “Discovery of KT-413, a Targeted Protein Degrader of IRAK4 and IMiD Substrates Targeting MYD88 Mutant Diffuse Large B-Cell Lymphoma” (J Med Chem, 2024).
pIC50: −log10 of the molar value. Calls of active or inactive are those of the source. No cut-off for these calls is given here.

Columns and labels:
[1] = Metabolic stability in rat hepatocyte assessed as intrinsic clearance measured per million cells; type: ADME, cell-based; details: hepatocytes, read-out: CLH
[2] = Oral bioavailability in rat at 10 mg/kg by LC-MS/MS analysis; type: ADME, organism-based; details: in vivo
[3] = system: OCI-Ly10; assay: Downregulation of […] expression in human OCI-Ly10 cells at 60 nM measured after 2 to 8 hrs by TMT based quantitative proteomics analysis; type: functional, cell-based; details: time 2-8 hrs
[4] = Clearance in mouse at 2 mg/kg, iv by LC-MS/MS analysis; type: ADME, organism-based; details: in vivo
[5] = biological target: T1, Protein cereblon/Interleukin-1 receptor-associated kinase 4 (Homo sapiens, UniProt Q9NWZ3+Q96SW2); assay: PROTAC activity at CRBN/IRAK4 in human OCI-Ly10 cells assessed as induction of IRAK4 degradation measured after 24 hrs by MSD assay; type: cell-based
Target sequence in this assay (Q9NWZ3 whole entry): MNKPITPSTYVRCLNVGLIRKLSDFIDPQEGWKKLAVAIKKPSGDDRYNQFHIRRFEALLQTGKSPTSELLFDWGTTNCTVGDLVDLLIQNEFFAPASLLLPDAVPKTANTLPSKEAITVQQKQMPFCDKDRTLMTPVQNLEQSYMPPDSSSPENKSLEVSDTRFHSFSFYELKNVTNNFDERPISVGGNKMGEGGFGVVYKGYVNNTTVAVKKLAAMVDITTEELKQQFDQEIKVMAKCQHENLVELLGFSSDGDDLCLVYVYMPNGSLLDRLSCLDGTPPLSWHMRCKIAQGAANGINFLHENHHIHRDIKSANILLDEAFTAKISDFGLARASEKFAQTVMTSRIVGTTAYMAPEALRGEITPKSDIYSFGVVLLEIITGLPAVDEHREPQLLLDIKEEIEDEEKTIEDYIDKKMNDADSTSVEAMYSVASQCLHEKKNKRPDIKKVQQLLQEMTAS
Target sequence in this assay (Q96SW2 whole entry): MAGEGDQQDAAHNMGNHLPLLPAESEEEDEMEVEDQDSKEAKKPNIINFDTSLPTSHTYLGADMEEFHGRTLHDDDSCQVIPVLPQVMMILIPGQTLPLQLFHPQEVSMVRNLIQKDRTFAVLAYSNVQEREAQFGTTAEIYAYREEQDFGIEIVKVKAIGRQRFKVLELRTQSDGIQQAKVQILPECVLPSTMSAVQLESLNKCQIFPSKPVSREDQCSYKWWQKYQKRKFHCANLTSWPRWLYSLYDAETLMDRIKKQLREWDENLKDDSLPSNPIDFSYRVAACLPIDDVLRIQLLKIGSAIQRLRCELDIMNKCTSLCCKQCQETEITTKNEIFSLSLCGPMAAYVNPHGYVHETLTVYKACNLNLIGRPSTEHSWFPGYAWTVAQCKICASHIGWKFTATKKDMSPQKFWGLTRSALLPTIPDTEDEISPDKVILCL

[6] = system: PBMC; assay: Effect on GSPT1 expression in human PBMC at 100 nM measured after 24 hrs by TMT based quantitative proteomics analysis; type: functional, cell-based
[7] = Volume of distribution at steady state in dog at 0.2 mg/kg, iv by LC-MS/MS analysis; type: ADME, organism-based, Canis lupus familiaris; details: in vivo, read-out: Vdss
[8] = Metabolic stability in dog liver microsomes assessed as intrinsic clearance; type: ADME, Canis lupus familiaris, Microsome; details: read-out: CLH
[9] = system: PBMC; assay: Downregulation of LPXN expression in human PBMC cells at 100 nM measured after 24 hrs by TMT based quantitative proteomics analysis; type: functional, cell-based
[10] = system: PBMC; assay: Effect on ZFP276 expression in human PBMC cells at 100 nM measured after 24 hrs by TMT based quantitative proteomics analysis; type: functional, cell-based
[11] = system: PBMC; assay: Downregulation of IRAK4 expression in human PBMC cells at 100 nM measured after 24 hrs by TMT based quantitative proteomics analysis; type: functional, cell-based
[12] = AUC in mouse at 10 mg/kg, po by LC-MS/MS analysis; type: ADME, organism-based; details: in vivo
[13] = system: OCI-Ly10; assay: […] of […] expression in human OCI-Ly10 cells at 60 nM measured after 2 to 8 hrs by TMT based quantitative proteomics analysis; type: functional, cell-based; details: time 2-8 hrs
[14] = AUC in rat at 10 mg/kg, po by LC-MS/MS analysis; type: ADME, organism-based; details: in vivo, read-out: AUC
[15] = system: PBMC; assay: Downregulation of FGD2 expression in human PBMC cells at 100 nM measured after 24 hrs by TMT based quantitative proteomics analysis; type: functional, cell-based
[16] = system: OCI-Ly10; assay: Antitumor activity against human OCI-LY10 cells xenografted in CB-17.SCID mouse model assessed as tumor growth regression at 3 mg/kg, po QD dosed measured after 38 days; type: functional, organism-based; details: time 38.0 day
[17] = biological target: T2, Protein cereblon/Zinc finger protein Aiolos (Homo sapiens, UniProt Q96SW2+Q9UKT9); assay: PROTAC activity at CRBN/Aiolos in human OCI-Ly10 cells assessed as induction of Aiolos degradation measured after 24 hrs by MSD assay; type: cell-based
Target sequence in this assay (Q96SW2 whole entry): as above
Target sequence in this assay (Q9UKT9 whole entry): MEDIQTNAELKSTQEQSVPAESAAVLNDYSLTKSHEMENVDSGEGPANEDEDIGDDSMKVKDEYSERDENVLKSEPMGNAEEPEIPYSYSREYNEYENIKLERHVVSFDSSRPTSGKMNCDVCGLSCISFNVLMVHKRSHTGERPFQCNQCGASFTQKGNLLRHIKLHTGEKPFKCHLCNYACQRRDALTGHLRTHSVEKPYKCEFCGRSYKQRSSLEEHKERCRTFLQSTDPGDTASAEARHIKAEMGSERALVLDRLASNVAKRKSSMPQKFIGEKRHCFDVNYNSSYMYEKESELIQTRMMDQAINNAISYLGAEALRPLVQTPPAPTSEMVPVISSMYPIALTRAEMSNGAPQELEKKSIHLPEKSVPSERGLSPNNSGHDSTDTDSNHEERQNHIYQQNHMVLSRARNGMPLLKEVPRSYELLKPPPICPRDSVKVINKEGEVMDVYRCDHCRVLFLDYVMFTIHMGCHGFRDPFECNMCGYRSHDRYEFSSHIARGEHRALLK

[18] = Half life in Non human primate at 0.2 mg/kg, iv by LC-MS/MS analysis; type: ADME, organism-based; details: primates, in vivo
[19] = Half life in mouse at 2 mg/kg, iv by LC-MS/MS analysis; type: ADME, organism-based; details: in vivo
[20] = Volume of distribution at steady state in Non human primate at 0.2 mg/kg, iv by LC-MS/MS analysis; type: ADME, organism-based; details: primates, in vivo, read-out: Vdss
[21] = Half life in dog at 0.2 mg/kg, iv by LC-MS/MS analysis; type: ADME, organism-based, Canis lupus familiaris; details: in vivo
[22] = system: OCI-Ly10; assay: Antitumor activity in human patient derived OCI-LY10 cells xenografted in NPG mouse bearing MYD88-mutated DLBCL tumor containing a CD79 co-mutation model assessed as tumor growth regression at 20 mg/kg, po QD dosed measured after 3 to 5 days relative to control; type: functional; details: time 3-5 day
[23] = Volume of distribution at steady state in rat at 2 mg/kg, iv by LC-MS/MS analysis; type: ADME, organism-based; details: in vivo, read-out: Vdss
[24] = Oral bioavailability in Non human primate at 2.1 mg/kg by LC-MS/MS analysis; type: ADME, organism-based; details: primates, in vivo
[25] = biological target: T1, Protein cereblon/Interleukin-1 receptor-associated kinase 4; assay: PROTAC activity at CRBN/IRAK4 in human OCI-Ly10 cells assessed as maximum degradation at 41 nM measured after 24 hrs; type: cell-based
Target sequence in this assay (Q96SW2 whole entry, looked up): as the sequence (Q96SW2 whole entry) above
Target sequence in this assay (Q9NWZ3 whole entry, looked up): as the sequence (Q9NWZ3 whole entry) above

[26] = Clearance in dog at 0.2 mg/kg, iv by LC-MS/MS analysis; type: ADME, organism-based, Canis lupus familiaris; details: in vivo
[27] = biological target: T2, Protein cereblon/Zinc finger protein Aiolos; assay: PROTAC activity at CRBN/Aiolos in human OCI-Ly10 cells assessed as maximum degradation at 41 nM measured within 2 hrs; type: cell-based
Target sequence in this assay (Q96SW2 whole entry, looked up): as the sequence (Q96SW2 whole entry) above
Target sequence in this assay (Q9UKT9 whole entry, looked up): as the sequence (Q9UKT9 whole entry) above

[28] = system: OCI-Ly10; assay: Antiproliferative activity against human OCI-Ly10 cells measured after 4 days by CellTiter-Glo Luminescent Cell Viability Assay; type: functional, cell-based; details: Homo sapiens, OCI-Ly10, 96 h
[29] = system: OCI-Ly10; assay: Antitumor activity against human OCI-LY10 cells xenografted in CB-17.SCID mouse model assessed as tumor growth regression at 10 to 30 mg/kg, po QD dosed measured after 38 days relative to control; type: functional; details: dose 10-30 mg/kg, time 38 day
[30] = system: OCI-Ly10; assay: Effect on GSPT1 expression in human OCI-Ly10 at 60 nM measured after 2 to 8 hrs by TMT based quantitative proteomics analysis; type: functional, cell-based; details: time 2-8 hrs
[31] = Volume of distribution at steady state in mouse at 2 mg/kg, iv by LC-MS/MS analysis; type: ADME, organism-based; details: in vivo, read-out: Vdss
[32] = system: OCI-Ly10; assay: Downregulation of FGD2 expression in human OCI-Ly10 cells at 60 nM measured after 2 to 8 hrs by TMT based quantitative proteomics analysis; type: functional, cell-based; details: time 2-8 hrs
[33] = Metabolic stability in mouse liver microsomes assessed as intrinsic clearance; type: ADME, Microsome; details: read-out: CLH
[34] = Metabolic stability in Non human primate liver microsomes assessed as intrinsic clearance; type: ADME, Microsome; details: primates, read-out: CLH
[35] = system: OCI-Ly10; assay: Downregulation of LPXN expression in human OCI-Ly10 cells at 60 nM measured after 2 to 8 hrs by TMT based quantitative proteomics analysis; type: functional, cell-based; details: time 2-8 hrs
[36] = Clearance in rat at 2 mg/kg, iv by LC-MS/MS analysis; type: ADME, organism-based; details: in vivo
[37] = AUC in dog at 2.1 mg/kg, po by LC-MS/MS analysis; type: ADME, organism-based, Canis lupus familiaris; details: in vivo
[38] = system: PBMC; assay: Effect on ZFP91 expression in human PBMC cells at 100 nM measured after 24 hrs by TMT based quantitative proteomics analysis; type: functional, cell-based
[39] = Metabolic stability in human hepatocyte assessed as intrinsic clearance measured per million cells; type: ADME, cell-based; details: hepatocytes, read-out: CLH
[40] = system: PBMC; assay: Effect on IKZF3 expression in human PBMC cells at 100 nM measured after 24 hrs by TMT based quantitative proteomics analysis; type: functional, cell-based
[41] = system: PBMC; assay: Effect on WIZ expression in human PBMC cells at 100 nM measured after 24 hrs by TMT based quantitative proteomics analysis; type: functional, cell-based
[42] = Clearance in Non human primate at 0.2 mg/kg, iv by LC-MS/MS analysis; type: ADME, organism-based; details: primates, in vivo
[43] = Half life in rat at 2 mg/kg, iv by LC-MS/MS analysis; type: ADME, organism-based; details: in vivo
[44] = Metabolic stability in dog hepatocyte assessed as intrinsic clearance measured per million cells; type: ADME, cell-based, Canis lupus familiaris; details: hepatocytes, read-out: CLH
[45] = biological target: T3, Cereblon/Ikaros (Homo sapiens, UniProt Q96SW2+Q13422); assay: PROTAC activity at CRBN/Ikaros in human OCI-Ly10 cells assessed as induction of Ikaros degradation measured after 24 hrs by MSD assay; type: cell-based
[46] = Passive permeability of the compound in wild type MDCK cells across apical to basolateral side at 1 uM measured for 120 mins by LC-MS/MS analysis; type: ADME, cell-based, Canis lupus familiaris; details: dog, read-out: permeability
[47] = Metabolic stability in Non human primate hepatocyte assessed as intrinsic clearance measured per million cells; type: ADME, cell-based; details: primates, hepatocytes; read-out: CLH
[48] = Oral bioavailability in mouse at 10 mg/kg by LC-MS/MS analysis; type: ADME, organism-based; details: in vivo
[49] = system: PBMC; assay: Effect on IKZF1 expression in human PBMC cells at 100 nM measured after 24 hrs by TMT based quantitative proteomics analysis; type: functional, cell-based
[50] = AUC in Non human primate at 2.1 mg/kg, po by LC-MS/MS analysis; type: ADME, organism-based; details: primates, in vivo
[51] = Oral bioavailability in dog at 2.1 mg/kg by LC-MS/MS analysis; type: ADME, organism-based, Canis lupus familiaris; details: in vivo
[52] = biological target: T3, Cereblon/Ikaros; assay: PROTAC activity at CRBN/Ikaros in human OCI-Ly10 cells assessed as maximum degradation at 41 nM measured within 2 hrs; type: cell-based
[53] = system: OCI-Ly10; assay: […] of IKZF3 expression in human OCI-Ly10 cells at 60 nM measured after 2 to 8 hrs by TMT based quantitative proteomics analysis; type: functional, cell-based; details: time 2-8 hrs

T3 sequence (Q96SW2 whole entry): as the sequence (Q96SW2 whole entry) above
T3 sequence (Q13422 whole entry): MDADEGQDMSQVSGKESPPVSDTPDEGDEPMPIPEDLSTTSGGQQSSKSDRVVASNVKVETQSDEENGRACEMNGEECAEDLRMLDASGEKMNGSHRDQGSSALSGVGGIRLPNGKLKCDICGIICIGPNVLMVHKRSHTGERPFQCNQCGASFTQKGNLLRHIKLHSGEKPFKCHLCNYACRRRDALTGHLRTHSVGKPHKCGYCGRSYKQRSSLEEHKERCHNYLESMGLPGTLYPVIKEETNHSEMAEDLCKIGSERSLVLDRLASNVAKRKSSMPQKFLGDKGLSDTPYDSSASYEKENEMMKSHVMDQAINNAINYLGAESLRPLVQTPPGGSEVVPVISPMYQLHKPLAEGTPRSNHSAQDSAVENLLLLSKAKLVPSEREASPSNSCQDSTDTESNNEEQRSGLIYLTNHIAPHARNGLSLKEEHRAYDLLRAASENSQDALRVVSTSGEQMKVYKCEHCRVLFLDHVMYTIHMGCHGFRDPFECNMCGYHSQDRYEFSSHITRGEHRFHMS

Structure (SMILES): CC(C)(O)c1cc2nc([C@H]3CC[C@H](CN4CC5(CC(CCNc6cccc7c6C(=O)N(C6CCC(=O)NC6=O)C7=O)C5)C4)CC3)sc2cc1NC(=O)c1cccc(C(F)(F)F)n1 (stereo partly drawn) [ZOMIRADOMIDE]
- hepatocyte CLint [1]: 0.8 µL/min/1e6 cells
- bioavailability [2]: 15%
- Activity [3]: Active
- clearance [4]: 11 mL/min/kg
- DC50 [5]: 6 nM
- Activity [6]: inactive
- Vd [7]: 29 L/kg
- microsomal CLint [8]: 4.2 µL/min/mg
- Activity [9]: Active
- Activity [10]: Active
- Activity [11]: Active
- AUC [12]: 2.8 µM·h
- Activity [13]: Active
- AUC [14]: 2.7 µM·h
- Activity [15]: Active
- Activity [16]: Active
- DC50 [17]: 1 nM
- half-life [18]: 16.4 h
- half-life [19]: 8.6 h
- Vd [20]: 5.8 L/kg
- half-life [21]: 28 h
- Activity [22]: 100%
- Vd [23]: 15 L/kg
- bioavailability [24]: 42%
- Activity [25]: Active
- clearance [26]: 14 mL/min/kg
- Activity [27]: Active
- pIC50 [28]: 7.96
- Activity [29]: 100%
- Activity [30]: inactive
- Vd [31]: 7.5 L/kg
- Activity [32]: Active
- microsomal CLint [33]: 4 µL/min/mg
- microsomal CLint [34]: 8.6 µL/min/mg
- Activity [35]: Active
- clearance [36]: 9.1 mL/min/kg
- AUC [37]: 0.46 µM·h
- Activity [38]: Active
- hepatocyte CLint [39]: 3.5 µL/min/1e6 cells
- Activity [40]: Active
- Activity [41]: Active
- clearance [42]: 4.5 mL/min/kg
- half-life [43]: 17 h
- hepatocyte CLint [44]: 2.3 µL/min/1e6 cells
- DC50 [45]: 1 nM
- Papp A→B at 2 h, 1 µM [46]: 1.3 ×10⁻⁶ cm/s
- hepatocyte CLint [47]: 2.7 µL/min/1e6 cells
- bioavailability [48]: 19%
- Activity [49]: Active
- AUC [50]: 3.6 µM·h
- bioavailability [51]: 21%
- Activity [52]: Active
- Activity [53]: Active
